From patent US20190322676A1, “CERAMIDE GALACTOSYLTRANSFERASE INHIBITORS FOR THE TREATMENT OF DISEASE” (BioMarin Pharmaceutical Inc., priority 2016, published 2019)
Structures can show the parent of a compound that is named as a salt.

What follows are molecules tested against T1, human CGT (ceramide galactosyltransferase), CHO/CGT lysate (Homo sapiens, UniProt Q16880) (assay: CGT enzyme assay, RapidFire/MS/MS readout with 0.01% Tween added (Table 1 ranges with two asterisks **)). Conditions: CGT enzymatic assay; range with two asterisks (**): RapidFire/MS/MS method with 0.01% Tween added.
T1 construct: Full-length human CGT cDNA was cloned into the BamH1/Xho1 site of pcDNA3.1 (+); expressed in transfected cells; host or cells: Chinese hamster ovary (CHO) cells; lysate prepared with M-PER
T1 sequence (Q16880 21-541): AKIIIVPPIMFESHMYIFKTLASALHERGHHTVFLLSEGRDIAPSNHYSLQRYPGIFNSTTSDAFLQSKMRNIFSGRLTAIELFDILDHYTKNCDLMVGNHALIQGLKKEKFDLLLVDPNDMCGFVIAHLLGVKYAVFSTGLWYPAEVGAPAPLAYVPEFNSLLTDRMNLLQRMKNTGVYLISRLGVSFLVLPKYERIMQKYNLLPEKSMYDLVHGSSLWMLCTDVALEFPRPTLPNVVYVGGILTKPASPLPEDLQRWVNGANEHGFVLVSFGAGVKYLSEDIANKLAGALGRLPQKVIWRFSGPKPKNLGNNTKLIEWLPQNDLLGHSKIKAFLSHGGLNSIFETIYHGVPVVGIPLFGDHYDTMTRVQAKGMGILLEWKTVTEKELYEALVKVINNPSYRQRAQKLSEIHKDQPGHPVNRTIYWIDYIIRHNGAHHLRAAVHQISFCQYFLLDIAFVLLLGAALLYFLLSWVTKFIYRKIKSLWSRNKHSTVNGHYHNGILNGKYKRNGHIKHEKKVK
Assay type: biochemical
Procedure: Full-length human CGT cDNA was cloned into the BamH1/Xho1 site of pcDNA3.1 (+) mammalian expression vector (V90-20, Invitrogen, Carlsbad, Calif.) and the plasmid was transfected into Chinese hamster ovary (CHO) cells. Lysate was prepared using M-PER (Mammalian Protein Extraction Reagent, ThermoFisher Scientific, Grand Island, N.Y.) in the presence of a protease inhibitor cocktail (P8340, Sigma, Saint Louis, Mo.). Each 100 mm dish (100% confluent, approximately 1×10^7 cells) was lysed with 250 μL of M-PER containing protease inhibitors. Protein concentration was determined using a Pierce BCA protein assay kit (ThermoFisher Scientific). Four micrograms of CHO/CGT lysate was incubated with various concentrations of a compound (0.001 μM-50 μM) in 10 mM HEPES (pH 7.2) containing 35 μM dioleoylphosphatidylcholine, 5 mM MgCl2, 5 mM MnCl2, 1% BSA, 15 mM KCl, 1 mM EGTA, 8 mM CHAPS, 10 μM C6-NBD-dihydro-ceramide and 17.5 μM UDP-galactose in a final reaction volume of 20 μL at 37° C. for 1 hour. The final concentration of DMSO was 0.5% in both compound-treated and mock-treated samples. Tween 80 (0.01%) was optionally added to the reaction mixture to help solubilize the compounds. Each individual reaction was diluted with 80 μL of methanol:acetronitrile (1:3) containing 5 μM N-docdecanoyl-NBD-galactosylceramide (internal standard) to stop the reaction. 200 μL H2O:acetonitile (1:1) was added to precipitate the protein. After sufficient mixing, the plates were centrifuged at 2469 g for 38 minutes, 200 μL of supernatant was transferred to a LC/MS 96-deep well plate and a second spin was performed at 2469 g for 10 minutes. The final supernatant was injected in triplicate for RapidFire/MS/MS analysis.
Quantitative Analysis Using the RapidFire/MS/MS Method:
The quantitative analysis of C6-NBD-dihydro-ceramide and C6-NBD-dihydro-galactosylceramide was performed on a Rapid Fire 360 high-throughput mass spectrometry system (Agilent Technologies, Palo Alto, Calif.) coupled with a API4000^+ triple quadrupole mass spectrometer (Applied Biosystems, Concord, Ontario, Canada). RapidFire software packages, including RapidFire Control panel, RapidFire UI and RapidFire Integrator (Agilent Technologies), were used to control the RapidFire instrument and to process data. Analyst 1.6.2 software packages (Applied Biosystems) were used to control the MS system and acquire MS data. […] of sample was loaded on a micro-scale C4 solid-phase extraction (SPE) cartridge (Agilent Technologies) and salts were removed using water supplemented with 0.1% formic acid at the flow rate of 1.5 mL/min for 3 sec. C6-NBD-dihydro-ceramide and C6-NBD-dihydro-galactosylceramide were co-eluted into the mass spectrometer using acetonitrile containing 0.1% formic acid at the flow rate of 1.0 mL/min for 3 sec. The total cycle time of one injection was 8 secs. The MS/MS detection was performed in ESI negative mode. The mass transition of C6-NBD-dihydro-galactosylceramide was m/z 752.6→678.6 using a −40 V collision energy, the mass transition of C6-NBD-dihydro-ceramide was m/z 590.6→115.8 using a −40 V collision energy and the mass transition of N-docdecanoyl-NBD-galactosylceramide was m/z 820.9→746.3 using a −45 V collision energy.
The C6-NBD-dihydro-galactosylceramide reading was normalized first by dividing the peak area of C6-NBD-dihydro-galactosylceramide by the peak area of the internal standard, N-docdecanoyl-NBD-galactosylceramide. IC50 values (see Table 1, where data ranges with one asterix (*) correspond to analysis using the RapidFire/MS/MS method, and data ranges with two asterixes (**) correspond to analysis using the RapidFire/MS/MS method with 0.01% Tween added) were generated from sigmoidal dose-response curves (variable slope) with GraphPad Prism software (GraphPad Software, Inc., San Diego, Calif.) using the normalized peak areas of C6-NBD-dihydro-galactosylceramide or the percent inhibition of C6-NBD-dihydro-galactosylceramide accumulation relative to DMSO control. […]

Row | IC50 | SMILES
1 | < 1 µM | N[C@H]1CCN(C(=O)[C@@H](NS(=O)(=O)c2ccc3cc(OC4CCCC4)ccc3c2)C(F)(F)c2ccc(-c3ccc(Cl)cc3)cc2)CC1(F)F [Compound 161-3, N—((R)-3-((S)-4-amino-3,3-difluoropiperidin-1-yl)-1-(4′-chloro-[1,1′-biphenyl]-4-yl)-1,1-difluoro-3-oxopropan-2-yl)-6-(cyclopentyloxy)naphthalene-2-sulfonamide trifluoroacetate]
2 | 10 to 30 µM | NC1CCN(C(=O)[C@H](NS(=O)(=O)c2ccc3cc(OC4CCCC4)ccc3c2)C(F)(F)c2ccc(Cl)c(OC3CCCC3)c2)CC1 [Compound 170-2, (S)—N-(3-(4-aminopiperidin-1-yl)-1-(4-chloro-3-(cyclopentyloxy)phenyl)-1,1-difluoro-3-oxopropan-2-yl)-6-(cyclopentyloxy) naphthalene-2-sulfonamide trifluoroacetate]
3 | 30 to 100 µM | O=C([C@H](NS(=O)(=O)c1ccc2cc(OC3CCCC3)ccc2c1)C(F)(F)c1ccc(-c2ccc(Cl)cc2)cc1)N1CCNC2(CC2)C1 [Compound 188-2, (S)-N-(1-(4′-chloro-[1,1′-biphenyl]-4-yl)-1,1-difluoro-3-oxo-3-(4,7-diazaspiro[2.5]octan-7-yl)propan-2-yl)-6-(cyclopentyloxy)naphthalene-2-sulfonamide]
4 | 1 to 10 µM | NC1CCN(C(=O)[C@@H](NS(=O)(=O)c2ccc(OCC3CCCCC3)cc2)C(F)(F)c2ccc(-c3ccc(Cl)cc3)cn2)CC1 [Compound 163-1, (R)—N-(3-(4-aminopiperidin-1-yl)-1-(5-(4-chlorophenyl)pyridin-2-yl)-1,1-difluoro-3-oxopropan-2-yl)-4-(cyclohexylmethoxy)benzenesulfonamide]
5 | 10 to 30 µM | NC1CCN(C(=O)[C@H](NS(=O)(=O)c2ccc3cc(OC4CCCC4)ccc3c2)C(F)(F)c2ccc(-c3ccc(Cl)cc3)cn2)CC1 [Compound 162-2, (S)—N-(3-(4-aminopiperidin-1-yl)-1-(5-(4-chlorophenyl)pyridin-2-yl)-1,1-difluoro-3-oxopropan-2-yl)-6-(cyclopentyloxy)naphthalene-2-sulfonamide]
6 | 1 to 10 µM | O=C([C@@H](NS(=O)(=O)c1ccc(OCC2CCCCC2)cc1)C(F)(F)c1ccc(-c2ccc(Cl)cc2)cc1)N1CC[C@H]2CNC[C@H]21 [Compound 195-1, N-((R)-1-(4′-chloro-[1,1′-biphenyl]-4-yl)-1,1-difluoro-3-((3aS,6aS)-hexahydropyrrolo[3,4-b]pyrrol-1(2H)-yl)-3-oxopropan-2-yl)-4-(cyclohexylmethoxy)benzenesulfonamide]
7 | 1 to 10 µM | CC(C)Oc1cc(C(F)(F)[C@H](NS(=O)(=O)c2ccc3cc(OC4CCCC4)ccc3c2)C(=O)N2CCC(N)CC2)ccc1Cl [Compound 172-1, (R)—N-(3-(4-aminopiperidin-1-yl)-1-(4-chloro-3-isopropoxyphenyl)-1,1-difluoro-3-oxopropan-2-yl)-6-(cyclopentyloxy)naphthalene-2-sulfonamide trifluoroacetate]
8 | 30 to 100 µM | NC1CCN(C(=O)[C@H](NS(=O)(=O)c2ccc(OCC3CCCCC3)cc2)C(F)(F)c2ccc(-c3ccc(Cl)cc3)cn2)CC1 [Compound 163-2, (S)—N-(3-(4-aminopiperidin-1-yl)-1-(5-(4-chlorophenyl)pyridin-2-yl)-1,1-difluoro-3-oxopropan-2-yl)-4-(cyclohexylmethoxy) benzenesulfonamide]
9 | 1 to 10 µM | CCOc1cc(-c2ccc(C(F)(F)[C@H](NS(=O)(=O)c3ccc4cc(OC5CCCC5)ccc4c3)C(=O)N3CCC(N)CC3)cc2)ccc1Cl [Compound 154-1, (R)—N-(3-(4-aminopiperidin-1-yl)-1-(4′-chloro-3′-ethoxy-[1,1′-biphenyl]-4-yl)-1,1-difluoro-3-oxopropan-2-yl)-6-(cyclopentyloxy)naphthalene-2-sulfonamide trifluoroacetate]
10 | 30 to 100 µM | O=C([C@H](NS(=O)(=O)c1ccc2cc(OC3CCCC3)ccc2c1)C(F)(F)c1ccc(-c2ccc(Cl)cc2)cc1)N1Cc2cn[nH]c2C1 [Compound 176-2, (S)—N-(1-(4′-chloro-[1,1′-biphenyl]-4-yl)-3-(4,6-dihydropyrrolo[3,4-c]pyrazol-5(1H)-yl)-1,1-difluoro-3-oxopropan-2-yl)-6-(cyclopentyloxy)naphthalene-2-sulfonamide]
11 | 1 to 10 µM | NC1CCN(C(=O)[C@@H](NS(=O)(=O)c2ccc(OCC3CCCCC3)cc2)C(F)(F)c2ccc(C3(C(F)(F)F)CC3)cc2)CC1 [Compound 196-1, (R)-N-(3-(4-aminopiperidin-1-yl)-1,1-difluoro-3-oxo-1-(4-(1-(trifluoromethyl)cyclopropyl)phenyl)propan-2-yl)-4-(cyclohexylmethoxy)benzenesulfonamide]
12 | 10 to 30 µM | NC1CCN(C(=O)[C@@H](NS(=O)(=O)c2ccc(CCOC3CCCC3)cc2)C(F)(F)c2ccc(-c3ccc(Cl)cc3)cc2)CC1 [Compound 185-1, (R)-N-(3-(4-aminopiperidin-1-yl)-1-(4′-chloro-[1,1′-biphenyl]-4-yl)-1,1-difluoro-3-oxopropan-2-yl)-4-(2-(cyclopentyloxy)ethyl)benzenesulfonamide]
13 | 1 to 10 µM | N[C@@H]1CCN(C(=O)[C@@H](NS(=O)(=O)c2ccc3cc(OC4CCCC4)ccc3c2)C(F)(F)c2ccc(-c3ccc(Cl)cc3)cc2)CC1(F)F [Compound 161-1, N—((R)-3-((R)-4-amino-3,3-difluoropiperidin-1-yl)-1-(4′-chloro-[1,1′-biphenyl]-4-yl)-1,1-difluoro-3-oxopropan-2-yl)-6-(cyclopentyloxy)naphthalene-2-sulfonamide trifluoroacetate]

Row | SMILES | IC50
14 | N[C@H]1[C@@H]2CC[C@H]1CN(C(=O)[C@H](NS(=O)(=O)c1ccc3cc(OC4CCCC4)ccc3c1)C(F)(F)c1ccc(-c3ccc(Cl)cc3)cc1)C2 [Compound 184-2, N-((S)-3-((1R,5S,8S)-8-amino-3-azabicyclo[3.2.1]octan-3-yl)-1-(4′-chloro-[1,1′-biphenyl]-4-yl)-1,1-difluoro-3-oxopropan-2-yl)-6-(cyclopentyloxy)naphthalene-2-sulfonamide] | 1 to 10 µM
15 | NC1CC2CCC(C1)N2C(=O)[C@H](NC(=O)[C@H](O)c1ccc(OCC2CCCCC2)cc1)C(F)(F)c1ccc(-c2ccc(Cl)cc2)cc1 (stereo partly drawn) [Compound 152-4, (2R)—N-((2S)-3-(3-amino-8-azabicyclo[3.2.1]octan-8-yl)-1-(4′-chloro-[1,1′-biphenyl]-4-yl)-1,1-difluoro-3-oxopropan-2-yl)-2-(4-(cyclohexylmethoxy)phenyl)-2-hydroxyacetamide trifluoroacetate] | 30 to 100 µM
